In a melting point compilation (Tetko et al.; mined from patent text by program, amines drawn as free bases though some values may be those of a salt) one finds melting point data, which are given here for 90 molecules.

What is called melting point is the temperature of the solid-liquid transition. `Cc1cc(C2(C(F)(F)F)C=NC(c3ccccc3)C2)ccc1NC(=O)c1cccc(I)c1C(=O)NC(C)C` (stereo not given): the melting point lay within 118 to 120 °C.
`O=C(NN=Cc1ccc2ccccc2n1)c1ccccc1[N+](=O)[O-]` gave a melting point of 195 to 196 °C.
In turn, `CC(=O)c1cccc2cc3c(C(C)=O)cccc3cc12` yielded a melting point of 185 to 205 °C.
To `COC(=O)c1ccc(NC(=O)N(C)C)cc1` belongs 169 to 170 °C; to `CNC(NCCSCc1nccc(NC(N)=NCC(F)(F)F)n1)=C(C#N)C#N`, 173 to 174 °C.
To `COc1ccc(CCNC(=O)C(=O)NCc2ccccn2)cc1OC1CCCC1` belongs 141 to 143 °C; to `O=S(=O)(Cc1ccccc1)n1c2cc(O)c(O)cc2c2ccc(O)c(O)c21`, 216 to 218 °C.
To `CN(C)Cc1cccc(OCCCNc2ncc(Cc3cccnc3)c(=O)[nH]2)c1` belongs 103 to 104 °C; to `Cc1ccc(C)c(Oc2oc(-c3ccc(Cl)cc3)nc2CC(=O)O)c1`, 185 °C.
Regarding `FC(F)(F)C1(c2cc(Cl)cc(Cl)c2)CC(c2ccc(-n3ccnc3)cc2)=NO1` (stereo not given), the melting point is 193 to 195 °C.
To `Cc1ccccc1Cn1[nH]c(N)cc1=O` belongs 138 °C; to `O=C(c1cc2cc(O)ccc2[nH]1)C12CC3CC(CC(C3)C1)C2`, 197 to 199 °C; to `COc1cc2c(cc1OC)-c1c(OC)c(OC)cc3c1C(C2)N(C)CC3` (stereo not given), 112 to 114 °C.
To `CC(CC1C(C(=O)O)C1(C)C)=C(Cl)Cl` (stereo not given) belongs 58.5 to 60 °C.
To `CCC(CO)(c1cccs1)N(C)C` (stereo not given) belongs 66 to 68 °C; to `FC(F)(F)c1cc(C2CN(Cc3ccccc3)CO2)c2cccc(C(F)(F)F)c2n1` (stereo not given), 108 to 109 °C; to `O=C1CN(N=Cc2ncc(-c3ccc(F)cc3)o2)C(=O)N1`, 281 to 282 °C.
For `CCCn1c(=O)c2c(nc(/C=C/c3ccc(OC)c4ccccc34)n2C)n(CCC)c1=O`, the melting point lay within 213 to 214 °C.
To `O=C(Nc1ccc2ccc(-c3cccc(F)c3)nc2n1)c1cccc(Br)c1` belongs 208 °C.
To `COc1cc2c(=O)n(CCOCCO)c3c4cc5c(cc4ncc3c2cc1OC)OCO5` belongs 235 °C.
To `Cc1ccc(Cn2nc(CCl)cc2-c2ccc(Cl)c(Cl)c2)cc1Cl` belongs 88 °C; to `Cc1ccc(S(=O)(=O)OC2CCC3(CC2)OCCO3)cc1`, 65 to 67.5 °C.
`CC(=O)Nc1cccc(/C=C/C(=O)O)c1C` came in with a melting point of 265 to 267 °C.
To `CNC(=S)NCCCc1ncco1` belongs 43 to 45 °C; to `O=C(NCc1cccc(F)c1)NNC(=O)c1ccc2c(c1)CCO2`, 200 to 201 °C; to `O=Cc1ccc2c(C=O)c[nH]c2c1`, 200 to 203 °C.
To `O=c1n(-c2ccc(N3CCNCC3)cc2)cnn1CC(F)(F)C(F)F` belongs 155 to 157 °C.
To `NC(=O)N1CCN(c2nn(-c3ccccc3)c3ccccc23)CC1` belongs 151 to 153 °C; to `Nc1n[nH]cc1C(=O)c1ccccc1`, 177 to 179 °C; to `CCCc1ccc(NC2CCN(c3ccc(OC[C@@]4(C)Cn5cc([N+](=O)[O-])nc5O4)cc3)CC2)cc1`, 222 to 223 °C.
In the case of `CN(C)C1CCN(S(=O)(=O)c2ccc(Nc3ccnc4cc(Cl)ccc34)cc2)CC1`, the melting point lay in the range of 230 to 231 °C.
To `CC1(CN2CCN(C(=O)OCc3ccccc3)CC2)Cn2cc([N+](=O)[O-])nc2O1` (stereo not given) belongs 130 to 132 °C; to `CC(=O)Nc1ccccc1C(=O)N1CC2CC2(c2ccccc2)C1` (stereo not given), 124 to 127 °C; to `O=C(O)CCc1oc(Cl)nc1-c1ccc(Cl)cc1`, 169 to 170 °C.
To `O=C1C(CCO)Oc2cc([N+](=O)[O-])ccc2N1Cc1ccc([N+](=O)[O-])cc1` (stereo not given) belongs 100 to 104 °C.
To `O=C1C2CCCN2S(=O)(=O)N1CCl` (stereo not given) belongs 46.5 to 47.5 °C; to `CCOC(=O)COc1ccc(CCCOC(=O)NCC2CC2)c(Oc2ncc(C(F)(F)F)cc2Cl)c1`, 113 °C.
Take `COc1cc(OC)cc(-c2nc[nH]c2-c2ccc(OC(F)F)c(O)c2)c1`: the melting point fell in the range of 159 to 161 °C.
To `N#Cc1ccc2ccc(CBr)cc2c1` belongs 110 to 116 °C.
To `Brc1ccc2c(c1Cc1cccc3cnccc13)OCO2` belongs 194 to 197 °C; to `O=C(O)c1ccccc1C(=O)c1ccc(N2CCCC2)cc1O`, 190 to 192 °C.
To `CC1(C2=CCC3C4CCC5CC(O)CCC5(C)C4C(O)CC23C)OCCO1` (stereo not given) belongs 214 to 218 °C; to `CCCc1ccc(OCc2ccc(OCc3nc(-c4ccccc4)oc3C)cc2)cc1OCC(=O)OC`, 100 to 101 °C.
Regarding `Cc1cc(CCCCCOc2c(C)cc(-c3noc(C(F)(F)F)n3)cc2C)on1`, the melting point lay within 41 to 42 °C.
To `COc1ccc2oc(C(=O)c3cccnc3N3CCOCC3)cc2c1` belongs 85 to 88 °C; to `CN(c1ccnc(C(N)=O)c1)c1ccccc1C(=O)Nc1cc2ccccc2cn1`, 200 °C.
The molecule `CNc1cccc(S(=O)(=O)NC(=O)Nc2nc(OC)cc(OC)n2)n1` showed a melting point of 166 to 168 °C.
`Cc1ccc(-c2ccc(S(N)(=O)=O)cc2)n1-c1ccc(Cl)cc1` gave a melting point of 152 to 154 °C.
`Cn1c(-c2ccc(-c3ccco3)cc2)cnc1[C@H](Cc1ccccn1)N(C=O)OC(C)(C)C` displayed a melting point of 131 to 135 °C.
To `CN(C)Cc1ccc(CSCCNC2=NS(=O)(=O)N=C2NO)o1` belongs 203 to 205 °C; to `CC(C)(C)c1cc(C(=O)COc2ccc(C(=O)OCc3ccccc3)c(O)c2)cc(C(C)(C)C)c1O`, 123 to 124 °C; to `COC(=O)c1ccc(Br)c(O)c1`, 130 to 132 °C.
To `O=S(=O)(c1cn(-c2c(Cl)cc(C(F)(F)F)cc2Cl)c(Cl)n1)C(F)(F)F` belongs 182 °C.
On to `NC(=S)c1cc(Cl)c(Cl)c(Cl)n1`, for which the melting point lay within 168 to 169 °C.
To `CCCc1c(-c2cc(=O)c3c(O)cc(OCC(=O)OCC)cc3o2)ccc(OC)c1O` belongs 138 °C.
To `c1nc2c(cc1NC1=NCCN1)COCC2` belongs 201 to 202 °C; to `CN(C)CCNC(=O)N1CCN(c2ccc(C(N)=O)cc2)CC1`, 193 to 195 °C; to `O=C(O)Cn1c(=O)c(=O)[nH]c2cc(Cl)ccc21`, 318 to 319 °C.
To `CC12CCC(O)CC1CCC1C2CCC2(CN3CCOCC3)C(O)C(N3CCCC3)CC12` (stereo not given) belongs 218 °C; to `CCCCc1ccc(NC(=O)CCc2ccccc2)c(=O)n1CC(=O)O`, 132 to 134 °C; to `O=C(NCCO)/C(=C/c1ccc(C(F)(F)F)c(F)c1)NC(=O)c1ccc(OCCC(F)(F)F)cc1`, 185 to 186 °C.
In the case of `CCCSC1=NSc2ccccc2N1Cc1ccc(-c2ccccc2C(=O)O)cc1`, the melting point is 75 to 85 °C.
To `COc1ccc(CCNC(=O)C(=O)NCc2ccc(NC(C)=O)cc2)cc1OC1CCCC1` belongs 235 to 236 °C; to `COC(=O)n1cc(C=O)c(-c2ccc([N+](=O)[O-])o2)n1`, 187 to 189 °C.
To `Cc1cc2c(s1)CCCNC2=O` belongs 119 to 120 °C; to `C[C@H](CN1CC(F)C1)NC(=O)c1c[nH]c2ncc(-c3nn(C)c4cc(Cl)ccc34)nc12`, 182 to 185 °C; to `C[C@H]1C[C@@H](Nc2ccccc2)c2ccccc2N1C(=O)c1ccccn1` (relative stereo), 157 °C.
To `CCOC(=O)Cc1c(C)n(CCCc2ccccc2)c2cccc(OCc3csc(-c4ccccc4)n3)c12` belongs 90 to 94 °C.
Consider `O=C1CN=C2C(=O)CC=CC2=N1`, for which the melting point was in the range of 208 to 211 °C.
To `O=C(c1cccs1)c1cnn2c(-c3cccc(NC(=S)Nc4ccccc4)c3)ccnc12` belongs 124 to 126 °C; to `NC(=O)[C@H]1CN(c2ccc(C3=NNC(=O)CS3)c(F)c2)C(=O)O1`, 249 to 251 °C; to `CCCCc1nc(C(=O)O)c(Sc2ccc(OC)cc2)n1Cc1cc2c(cc1Cl)OCO2`, 82 °C.
To `O=C(NCc1cccs1)c1ccccc1C(c1ccc(O)cc1)c1ccc(O)cc1` belongs 109 to 111 °C.
On to `C[C@H](C#Cc1sc(Cc2ccc(F)cc2)cc1Cl)N(O)C(N)=O`, for which the melting point was 131 to 132 °C.
To `CC[C@H](C)[C@H](Nc1nc(OC)ns1)C(=O)N1CCC[C@H]1C(=O)O` belongs 112 to 114 °C.
To `CN(C)C(=O)c1cc(N)cc(C(F)(F)F)c1` belongs 154 °C; to `Oc1ccc(Nc2nc(Cl)nc(NCc3ccco3)n2)cc1`, 188 to 190 °C.
To `NC(CC1c2ccccc2Oc2ccccc21)(C(=O)O)c1ccc(C(=O)O)c(O)c1` (stereo not given) belongs 191 to 194 °C; to `CCCCCCCCCCCNC(=S)NCCCCCCCCCCC`, 70 to 72 °C; to `NC(=NCC(F)(F)F)Nc1nc(CCCCNc2nc3ccccc3[nH]2)cs1`, 183 to 186 °C.
Regarding `Cc1cc(C(=O)c2ccc(Cl)cc2)ccc1[N+](=O)[O-]`, the melting point is 105 to 108 °C.
In turn, `FCc1nc(C#CCCc2cn3cc(F)ccc3n2)cs1` had a melting point of 82 to 84 °C.
To `Cc1noc(NS(=O)(=O)c2ccc(NCc3ccccc3)cc2)c1C` belongs 47 to 48 °C; to `COC(=O)CCC#Cc1ccc(O)c(CCC(=O)OC)n1`, 119 to 121 °C.
To `CCOC(=O)C(COC(=O)COc1ccc(NC(=O)c2ccccc2-c2ccc(C(F)(F)F)cc2)c(C(=O)N(C)C)c1)(C(=O)OCC)c1ccccc1` belongs 132 to 138 °C; to `CCOc1cc(C2CSCCC2=O)ccc1OC` (stereo not given), 108 to 110 °C.
To `CSc1cc(C(F)(F)F)ccc1C#N` belongs 80 °C.
`CCC=CCn1c(=O)sc2c(=O)n(N)c(N)nc21` came in with a melting point of 137 to 139 °C.
Molecule `CCOC(=O)c1cnc(Nc2ccc(OCC)cc2)[nH]c1=O` came in with a melting point of 263 to 265 °C.
To `CC(C)(C)OC(=O)N1C[C@H](C#N)C[C@H]1C(=O)OCc1ccccc1` belongs 97 to 99 °C.
